US20170107207A1, “AMINOPYRAZOLONE DERIVATIVE” (DAIICHI SANKYO COMPANY, LIMITED, priority 2014, published 2017)

Key:
[1] = target: T1, TIP48/TIP49 complex (Homo sapiens, UniProt Q9Y230+Q9Y265); assay: ATPase assay of TIP48/TIP49 complex (ADP-Glo); assay type: biochemical; settings: concentration at which the ATPase activity was inhibited by 50%
T1 construct: made in house; host or cells: E. coli
Summary of the method: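 Compound was tested over 10 four-fold concentrations, 200 μM down to 0.0007 μM at 2% DMSO, against E. coli-derived human rTIP48/rTIP49 for 1.5 h at room temperature, pH 7.5 with ATP. ATP hydrolysis was read as ADP-Glo luminescence, normalised to complex-only and no-complex wells, then fitted to dose-response curves.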

[2] = test system: human lymphoma cell line RAMOS cells; assay: Cell growth inhibition test using RAMOS cell, MTT assay; assay type: cell-based; settings: 50% growth inhibition concentration
Method: A cell growth inhibition test was carried out by treating human lymphoma cell line RAMOS cells with a test compound for a given period and then counting the number of viable cells by MTT assay or CellTiter-Glo Luminescent Cell Viability Assay (manufactured by Promega Corp.; hereinafter, referred to as ATP assay).
RAMOS cells were suspended in a medium (RPMI1640 medium containing 10% fetal bovine serum). The cell suspension was inoculated at 5000 cells/150 μL/well to a 96-well multiwell plate. The test compound was dissolved in DMSO, and this solution was diluted with medium to prepare a sample solution (DMSO concentration: 1% or lower). Subsequently, test compound-free medium or the sample solution was added thereto at 50 μL/well. The MTT assay was carried out at the day of addition of the sample solution or the DMSO dilution to the cells and after culture at 37° C. for 3 days under 5% CO2 of the cells supplemented with the sample solution or the medium. The MTT assay was carried out as follows.
A 5 mg/mL solution of MTT (3-(4,5-dimethylthiazol-2-yl)-2,5-diphenyltetrazolium bromide, Sigma-Aldrich Corp., M-2128) was prepared using a phosphate buffered solution (Dulbecco's phosphate-buffered saline). This MTT solution was added at 20 μL/well to the plate. Then, the plate was incubated at 37° C. for 4 hours under 5% CO2. The plate was centrifuged at 1200 rpm for 5 minutes, and then, the culture supernatant was removed by suction using a dispenser. DMSO was added thereto at 150 μL/well to dissolve formed formazan. […] from each well was rendered uniform by the stirring of the plate using a plate mixer. The absorbance of each well was measured using a plate reader under conditions involving OD of 540 nm and reference of 660 nm.
The number of viable cells and absorbance (hereinafter, referred to as an OD value) have been confirmed to correlate with each other. Therefore, the rate of cell growth was calculated according to the following expression: Rate of cell growth (T/C %) of a test compound-supplemented well=100×[(B−C)/(A−C)] wherein A represents the OD value (final culture date) of a test compound-free well; B represents the OD value (final culture date) of a test compound-containing well; and C represents the OD value (day of cell inoculation) of a well at the start of contact of the cells with the test compound.
T/C % at each concentration of the test compound was determined. The concentration at which the test compound offered 50% growth rate was calculated as a 50% growth inhibition concentration (GI50) value from the growth rates at two points interpolating 50% and the concentrations, and is shown in Table 56.

T1 sequence (Q9Y230 whole entry): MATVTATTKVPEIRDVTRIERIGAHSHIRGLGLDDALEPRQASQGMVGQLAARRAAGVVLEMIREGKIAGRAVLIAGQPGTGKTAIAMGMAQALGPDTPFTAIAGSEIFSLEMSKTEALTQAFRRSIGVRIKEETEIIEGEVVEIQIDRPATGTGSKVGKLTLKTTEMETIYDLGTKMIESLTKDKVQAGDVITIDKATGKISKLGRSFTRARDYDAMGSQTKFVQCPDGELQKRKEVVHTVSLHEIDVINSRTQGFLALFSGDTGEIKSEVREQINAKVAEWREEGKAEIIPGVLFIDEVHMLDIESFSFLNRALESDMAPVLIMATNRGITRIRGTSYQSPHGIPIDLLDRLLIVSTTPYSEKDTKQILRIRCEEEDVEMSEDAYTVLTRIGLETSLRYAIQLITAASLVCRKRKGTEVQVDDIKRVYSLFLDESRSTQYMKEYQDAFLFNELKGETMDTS
T1 sequence (Q9Y265 whole entry): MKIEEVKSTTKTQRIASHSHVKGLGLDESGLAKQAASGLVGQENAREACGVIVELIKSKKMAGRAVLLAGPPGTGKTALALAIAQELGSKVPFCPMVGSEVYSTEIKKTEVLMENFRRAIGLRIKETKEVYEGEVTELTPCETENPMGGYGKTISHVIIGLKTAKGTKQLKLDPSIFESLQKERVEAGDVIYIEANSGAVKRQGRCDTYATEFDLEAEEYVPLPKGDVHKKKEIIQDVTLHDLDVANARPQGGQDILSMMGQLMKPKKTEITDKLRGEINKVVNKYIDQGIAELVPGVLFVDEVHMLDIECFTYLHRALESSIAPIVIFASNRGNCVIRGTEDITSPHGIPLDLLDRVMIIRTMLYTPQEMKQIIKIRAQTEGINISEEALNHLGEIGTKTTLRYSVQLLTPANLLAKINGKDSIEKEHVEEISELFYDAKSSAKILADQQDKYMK

An IC50 [1] of 96 nM and a GI50 [2] of 170 nM were found for COc1ccc(Cl)cc1C(=O)NCC(C)(C)CC(=O)Nc1c(CN(C)CCO)n(C)n(-c2ccccc2)c1=O [Example 8, 5-Chloro-N-(4-[(5-{[2-hydroxyethyl(methyl)amino]methyl}-1-methyl-3-oxo-2-phenyl-2,3-dihydro-1H-pyrazol-4-yl)amino]-2,2-dimethyl-4-oxobutyl)-2-methoxybenzamide] in this work.
An IC50 [1] of 260 nM and a GI50 [2] of 1200 nM were found for C=Cn1c(C)c(NC(=O)CC(C)(C)CC(=O)Nc2cc(Cl)c(F)cc2OC)c(=O)n1-c1ccccc1 [Example 143, N-(5-Chloro-4-fluoro-2-methoxyphenyl)-3,3-dimethyl-N′-(3-methyl-5-oxo-1-phenyl-2-vinylpyrazol-4-yl)pentanediamide] in this work.
An IC50 [1] of 190 nM and a GI50 [2] of 740 nM were found for Cc1c(NC(=O)CC(C)(C)CNC(=O)c2cc(Cl)ccc2OC2COC2)c(=O)n(-c2ccccc2)n1C [Example 108, 5-Chloro-N-{4-[(1,5-dimethyl-3-oxo-2-phenyl-2,3-dihydro-1H-pyrazol-4-yl)amino]-2,2-dimethyl-4-oxobutyl}-2-(oxetan-3-yloxy)benzamide] in this work.
An IC50 [1] of 48 nM and a GI50 [2] of 170 nM were found for CNCc1c(NC(=O)CC(C)(C)CNC(=O)c2cc(Cl)ccc2OC)c(=O)n(-c2ccccc2)n1C [Example 4, 5-Chloro-N-(2,2-dimethyl-4-{[1-methyl-5-(methylaminomethyl)-3-oxo-2-phenyl-2,3-dihydro-1H-pyrazol-4-yl]amino}-4-oxobutyl)-2-methoxybenzamide] in this work.
An IC50 [1] of 57 nM and a GI50 [2] of 81 nM were found for CCOc1ccc(Cl)cc1C(=O)NCC(C)(C)CC(=O)Nc1c(C)n(C)n(-c2cccc(C)n2)c1=O [Example 152, 5-Chloro-N-(4-{[1,5-dimethyl-2-(6-methyl-2-pyridyl)-3-oxopyrazol-4-yl]amino}-2,2-dimethyl-4-oxobutyl)-2-ethoxybenzamide] in this work.
An IC50 [1] of 82 nM and a GI50 [2] of 110 nM were found for Cc1cccc(-n2c(=O)c(NC(=O)CC(C)(C)CC(=O)Nc3cc(Cl)ccc3OC(F)(F)F)c(C)n2C)n1 [Example 154, N-[5-Chloro-2-(trifluoromethoxy)phenyl]-N′-[1,5-dimethyl-2-(6-methyl-2-pyridyl)-3-oxo-2,3-dihydro-1H-pyrazol-4-yl]-3,3-dimethylpentanediamide] in this work.
An IC50 [1] of 260 nM and a GI50 [2] of 400 nM were found for CCC(C)(CC(=O)Nc1cc(Cl)ccc1OC)CC(=O)Nc1c(C)n(C)n(-c2ccccc2)c1=O (stereo not drawn) [Example 99, N-(5-Chloro-2-methoxyphenyl)-N′-(1,5-dimethyl-3-oxo-2-phenyl-2,3-dihydro-1H-pyrazol-4-yl)-3-ethyl-3-methylpentanediamide] in this work.
An IC50 [1] of 40 nM and a GI50 [2] of 130 nM were found for Cc1cc2cc(Cl)cc(C(=O)NCC(C)(C)CC(=O)Nc3c(C)n(C)n(-c4ccccn4)c3=O)c2o1 [Example 151, 5-Chloro-N-(4-{[1,5-dimethyl-3-oxo-2-(2-pyridyl)-2,3-dihydro-1H-pyrazol-4-yl]amino}-2,2-dimethyl-4-oxobutyl)-2-methylbenzofuran-7-carboxamide] in this work.
An IC50 [1] of 160 nM and a GI50 [2] of 230 nM were found for CCOc1ncc(Cl)cc1C(=O)NCC(C)(C)CC(=O)Nc1c(C)n(CCN(C)C)n(-c2ccccc2)c1=O [Example 141, 5-Chloro-N-[4-({1-[2-(dimethylamino)ethyl]-5-methyl-3-oxo-2-phenyl-2,3-dihydro-1H-pyrazol-4-yl}amino)-2,2-dimethyl-4-oxobutyl]-2-ethoxypyridine-3-carboxamide] in this work.
An IC50 [1] of 41 nM and a GI50 [2] of 110 nM were found for CCOc1ncc(Cl)cc1C(=O)NCC(C)(C)CC(=O)Nc1c(COC)n(C)n(-c2ccccc2)c1=O [Example 117, 5-Chloro-2-ethoxy-N-(4-{[5-(methoxymethyl)-1-methyl-3-oxo-2-phenyl-2,3-dihydro-1H-pyrazol-4-yl]amino}-2,2-dimethyl-4-oxobutyl)pyridine-3-carboxamide] in this work.
An IC50 [1] of 190 nM and a GI50 [2] of 590 nM were found for COc1ccc(Cl)cc1NC(=O)CC(C)(C)CC(=O)Nc1c(C(C)C)n(C)n(-c2ccccc2)c1=O [Example 128, N-(5-Chloro-2-methoxyphenyl)-N′-(5-isopropyl-1-methyl-3-oxo-2-phenyl-2,3-dihydro-1H-pyrazol-4-yl)-3,3-dimethylpentanediamide] in this work.
An IC50 [1] of 100 nM and a GI50 [2] of 190 nM were found for CCOc1ccc(Cl)cc1C(=O)NCC(C)(C)CC(=O)Nc1c(C)n(C)n(-c2ccccn2)c1=O [Example 149, 5-Chloro-N-(4-{[1,5-dimethyl-3-oxo-2-(2-pyridyl)pyrazol-4-yl]amino}-2,2-dimethyl-4-oxobutyl)-2-ethoxybenzamide] in this work.
An IC50 [1] of 63 nM and a GI50 [2] of 150 nM were found for CCOc1ccc(Cl)cc1C(=O)NCC(C)(C)CC(=O)Nc1c(CCN(C)C(C)C)n(C)n(-c2ccccc2)c1=O [Example 19, 5-Chloro-2-ethoxy-N-{4-[(5-{2-[isopropyl(methyl)amino]ethyl}-1-methyl-3-oxo-2-phenyl-2,3-dihydro-1H-pyrazol-4-yl)amino]-2,2-dimethyl-4-oxobutyl}benzamide] in this work.
An IC50 [1] of 44 nM and a GI50 [2] of 90 nM were found for CCc1nc2c(C(=O)NCC(C)(C)CC(=O)Nc3c(C)n(C)n(-c4ccccc4)c3=O)cc(Cl)cc2o1 [Example 111, 6-Chloro-N-{4-[(1,5-dimethyl-3-oxo-2-phenyl-2,3-dihydro-1H-pyrazol-4-yl)amino]-2,2-dimethyl-4-oxobutyl}-2-ethyl-1,3-benzoxazole-4-carboxamide] in this work.
An IC50 [1] of 110 nM and a GI50 [2] of 470 nM were found for COc1ncc(Cl)cc1C(=O)NCC(C)(C)CC(=O)Nc1c(CN(C)C)n(C)n(-c2ccccc2)c1=O [Example 7, 5-Chloro-N-[4-({5-[(dimethylamino)methyl]-1-methyl-3-oxo-2-phenyl-2,3-dihydro-1H-pyrazol-4-yl}amino)-2,2-dimethyl-4-oxobutyl]-2-methoxypyridine-3-carboxamide] in this work.
An IC50 [1] of 220 nM and a GI50 [2] of 800 nM were found for COc1ccc(Cl)cc1C(=O)NCC(C)(C)CC(=O)Nc1c(COC2CN(C)C2)n(C)n(-c2ccccc2)c1=O [Example 134] in this work.
An IC50 [1] of 24 nM and a GI50 [2] of 51 nM were found for COCc1c(NC(=O)CC(C)(C)CNC(=O)c2cc(Cl)cc3cc(C)oc23)c(=O)n(-c2ccccc2)n1C [Example 120, 5-Chloro-N-(4-{[5-(methoxymethyl)-1-methyl-3-oxo-2-phenyl-2,3-dihydro-1H-pyrazol-4-yl]amino}-2,2-dimethyl-4-oxobutyl)-2-methylbenzofuran-7-carboxamide] in this work.
An IC50 [1] of 98 nM and a GI50 [2] of 210 nM were found for CCOc1ncc(Cl)cc1C(=O)NCC(C)(C)CC(=O)Nc1c(C)n(C)n(-c2cccc(C)n2)c1=O [Example 153, 5-Chloro-N-(4-{[1,5-dimethyl-2-(6-methyl-2-pyridyl)-3-oxo-2,3-dihydro-1H-pyrazol-4-yl]amino}-2,2-dimethyl-4-oxobutyl)-2-ethoxypyridine-3-carboxamide] in this work.
An IC50 [1] of 61 nM and a GI50 [2] of 140 nM were found for COCc1c(NC(=O)CC(C)(C)CNC(=O)c2cc(Cl)cc3c2OC(C)(C)C3)c(=O)n(-c2ccccc2)n1C [Example 121, 5-Chloro-N-(4-{[5-(methoxymethyl)-1-methyl-3-oxo-2-phenyl-2,3-dihydro-1H-pyrazol-4-yl]amino}-2,2-dimethyl-4-oxobutyl)-2,2-dimethyl-3H-benzofuran-7-carboxamide] in this work.
An IC50 [1] of 250 nM and a GI50 [2] of 240 nM were found for CCOc1ncc(Cl)cc1C(=O)NCC(C)(C)CC(=O)Nc1c(C)n(CCN2CCC2)n(-c2ccccc2)c1=O [Example 140, N-[4-({1-[2-(Azetidin-1-yl)ethyl]-5-methyl-3-oxo-2-phenyl-2,3-dihydro-1H-pyrazol-4-yl}amino)-2,2-dimethyl-4-oxobutyl]-5-chloro-2-ethoxypyridine-3-carboxamide] in this work.
An IC50 [1] of 38 nM and a GI50 [2] of 48 nM were found for CCOc1ccc(Cl)cc1C(=O)NCC(C)(C)CC(=O)Nc1c(C)n(CC)n(-c2ccccc2)c1=O [Example 137, 5-Chloro-2-ethoxy-N-{4-[(1-ethyl-5-methyl-3-oxo-2-phenyl-2,3-dihydro-1H-pyrazol-4-yl)amino]-2,2-dimethyl-4-oxobutyl}benzamide] in this work.
